Data: US20260325575A1, “THE USE OF BORATE DERIVATIVES IN THE TREATMENT OF NEURODEGENERATIVE DISEASES” (YEDITEPE UNIVERSITESI, priority 2022, published 2026)

Key:
[1] = test system: SOD1 G93A transgenic mice; assay: Rotarod test (motor performance) in SOD1 G93A transgenic mice; assay type: in vivo, mouse (C57BL/6 SOD1 G93A; conditions: 200 mg/kg by gavage every other day for 3 weeks; vs transgenic control (water); 14 rpm, max 180 s; n=8
Method: In the in vivo studies conducted, the SOD1 G93A transgenic mice model, which is one of the most preferred animal models for modeling ALS disease, was used. In the study (n=8); SPT and NaB were administered to the animals every other day by gavage. As a result of the comparison of the motor functions of these transgenic animals that received SPT and NaB throughout the experiment with the motor functions of the transgenic control (water) group, it was observed that SPT increased the performance of the rotarod test by 88.4% in the SOD1 G93A model compared to the control group (P<0.01). […] In the group that received water, it was observed that the findings aggravated over time and the rotarod performance decreased.
Example 1 Information about the Experimental Animals Used
Example 2 Experimental Groups
Example 3 Substance Administration
SPT or NaB derivatives at 200 mg/kg per mouse were vortexed at high speed and dissolved in the daily drinking water of the mice. […]
The mice were acclimatized with the rotarod test apparatus for one day before their motor function was tested and their performance was recorded at the end of the second day. Their motor performances were measured three times for a maximum of 180 seconds at a constant speed of 14 rpm, and their longest residence time on the apparatus was recorded. […]

[2] = test system: SOD1 G93A transgenic mice; assay: Neuroscoring, phenotypic characteristics of NS1 phase; assay type: in vivo, mouse (C57BL/6 SOD1 G93A
Method: SPT or NaB derivatives at 200 mg/kg per mouse were vortexed at high speed and dissolved in the daily drinking water of the mice. Borate Solutions prepared thus in drinking water were administered to mice by gavage every other day for 3 weeks. The control group received only the same amount of drinking water by gavage.
In order to observe during the experiment the stages when early and late symptoms of the disease occur, wild-type and transgenic animals were subjected to neuroscoring as described in the study by Hatzipetros et al. In this way, it was aimed to observe whether the administration to the animals caused any difference in the onset, course and severity of ALS symptoms. For this, the table of the disease course is graded with a scoring System as follows: • 1. Neuro Score 0 (NS 0, Pre-symptomatic): When suspended by the tail, the mouse can fully extend its hindlimbs away from the lateral midline to the side in a normal manner and stay in this position for at least two seconds or longer. When the mouse is allowed to walk, normal gait is observed. • 2. NS 1 (First symptoms): When the mouse is suspended by the tail, its hindlimbs cannot fully extend away from the lateral midline, they partially collapse backwards or the hindlimbs are observed to tremble (tremor). Towards the end of the phase, gait disturbances and slow gait (ataxia) begin. The first symptoms usually appear as of day 90. • 3. NS 2 (Partial paralysis, paresis): When the mouse is suspended by the tail, its hindlimbs are partially or completely collapsed, or cannot extend much, there is still joint movement. When the mouse is allowed to walk, it can use its hindlimbs for forward motion, however it is observed that its toes curl backwards at least twice during a 90 cm walk or it can move by dragging its feet. When the mouse is placed on its left or right side, it is able to right itself within 10 seconds. • 4. NS 3 (Paralysis): When the mouse is suspended by the tail, it is observed that there is rigid paralysis in its hindlimbs or minimal joint movement. When the mouse is allowed to walk, it is observed that there is forward motion however it cannot use its hindlimbs. When the mouse is placed on its left or right side, it is observed that it is able to right itself within 10 seconds. • 5. NS 4 (Humane end-point): When the mouse is suspended by the tail, it is observed that there is rigid paralysis in its hindlimbs. When the mouse is allowed to walk, no motion is observed, when the mouse is placed on its left or right side it is observed that it is not able to right itself within 10 seconds, i.e., absence of righting reflex.
According to this scoring system, if we divide the symptoms observed in animals into phases according to the order of occurrence, 50-80 days after birth can be considered pre-symptomatic. Since as of day 90 the first symptoms start to appear, we can consider this date as the beginning of the early symptomatic phase and also the beginning of neuroscore 1. Although it can vary, this period can last 20-38 days and also covers the neuroscore 2 phase. As of day 120 on average, the process is called late symptomatic. Although it may last a little longer in females, this period lasts 5-10 days on average and neuroscore 3 and 4 phases are also observed during this late symptomatic period

[3] = test system: gene expression in brain and spinal cord tissues of transgenic mice; assay: Microarray gene expression and pathway analysis (PANTHER GO) in brain and spinal cord; assay type: in vivo, mouse (C57BL/6 SOD1 G93A; conditions: transgenic animals, n=3
Method: FIG. 2. is a representation of the gene expressions of the other groups compared to the transgenic control group in the form of a heat map, as a result of the microarray analysis performed on the spinal cord materials of the transgenic and wild type experimental groups (n=3 per group) that received NaB, SPT and water only. (Statistical differences between groups were compared using Volcano plot analysis (two-way ANOVA; P values<0.05) and fold change ±2 and more were considered statistically significant).
FIG. 3. is a representation of some of the pathways in which SPT and NaB derivatives are found to be effective as a result of the pathway analysis (PANTHER Gene Ontology (GO) Classification and Pathway System) and of the number of genes located in these pathways (Total number of genes: 2677, total number of hits: 443).
In addition to measurements of motor function, in order to investigate whether derivatives induce any gene-based changes in the Central nervous system, brain and spinal cord materials were collected from wild type and transgenic control (water), NaB and SPT group animals with n=3 and RNA was isolated from these materials and microarray analysis was performed. […]

[4] = Cytotoxicity analysis (MTS); assay type: cell-based, human; conditions: human, differentiated sh-sy5y cells, neuronal cells, read-out: non-toxic concentration
Method: (§1) SHSY5Y cells stocked in cryo tubes at −80° C. or liquid nitrogen were kept in a water bath at 37° C. until completely solved. The solved cells were transferred to 15 ml Falcon tubes containing 5 ml cell medium and centrifuged at 300×g for 5 minutes. After centrifugation, the medium on the cells was removed and the cells were solved with 1 ml of fresh medium using a pipette. Then, the cells were transferred to cell flask containing 12 ml DMEM/F12 medium and incubated at 37° C. for 24±2 hours in an incubator containing 5% CO2.
(§2) The next day, the medium on the adherent cells was changed and incubation was continued until the cells formed 85%-90% monolayer […]. The medium of the monolayered cells was removed and the cells were washed with 5 ml PBS. […]
(§3) After the incubation period was completed, the medium on the cells was removed and the cells were washed again with 1 ml PBS. […] At the end of the tenth day, neuronal cells were ready.
(§4) After the incubation period was completed (24 hours), the medium on the cells was removed and replaced with 10% MTS solution prepared in the cell medium. […] After incubation, absorbance measurements were made using an ELISA plate reader at 490 nm. From the absorbance values obtained, cell viability was calculated according to the formula ((Mean Cell Abs./Mid. Negative Con. Abs.)*100). […]

[5] = test system: Amyloid beta plaques in SHSY5Y cells differentiated into cholinergic neurons; assay: Amyloid beta plaques in Alzheimer's model, immunocytochemistry (fluorescence); assay type: cell-based, human
Method: SH-SY5Y cells were seeded in 6-well plates with 250×10^5 cells in each well and incubated with medium containing DMEM/F12, 10% FBS, 1% PSA at 37° C. in 5% CO2 for 24 hours. Then, the medium on the cells was removed and each well was washed with 1 ml PBS. Then, 2 ml of differentiation medium (1% FBS, 10 μM/ml RA) was added to each cell well and cells were incubated for 72 hours.
After the incubation period was completed, the medium on the cells was removed and the cells were washed again with 1 ml PBS. Afterwards, 2 ml of differentiation medium (1% FBS, 10 μM/ml RA, 10 μg/ml BDNF) was added to the cells and incubated for 72 hours. The same procedure was repeated on the seventh day. At the end of the tenth day, neuronal cells were ready.
Obtaining Alzheimer's Model and Evaluation of Active Substances
Immunocytochemistry Analysis
The old media on the incubated cells were removed and the cells were washed three times with 1 ml PBS.
Firstly, cells were fixed with 1 ml of 2% paraformaldehyde for 30 min at room temperature and then washed three times with PBS. […]
After incubation, the cells were washed three times with PBS. […] Finally, the cells were washed three times with PBS and measurements were taken with a fluorescence microscope (Zeiss).
The data obtained from the immunocytochemistry study were analysed using Image J (National Institutes of Health) and MS Excel.

ALS patients = conditions: cited from earlier work
[6] = test system: SHSY5Y cells differentiated into neuron cells; assay: Cytotoxicity analysis (MTS); assay type: cell-based, human; conditions: 24 hours, neuronal cells
Method: as §1, §2, §3, §4

[7] = day 90, 200 mg/kg by gavage every other day, tg mice
[8] = day 110, 200 mg/kg by gavage every other day, tg mice

O.O.O.O.O.O=BO[B-](OB=O)(OB=O)OB=O.[Na+] [NaB, sodium; tetrakis(oxoboranyloxy)boranuide; pentahydrate]
increase in rotarod performance compared to the control group [1]: 62.45%
classical symptoms of stage 1 (NS1) at the end of the experiment (hindlimb retraction, tremor and ataxia) ([2]; animals still in NS1 at end of experiment, vs control group): considerably weaker than those in the control group
s3 (ataxia), day 80 (t = 0) ([2]; day 80, before administration, tg mice): very mild
s1 (hindlimb retraction), day 90 (onset of the disease-NS1) [2, 7]: mild
s2 (tremor), day 90 (onset of the disease-NS1) [2, 7]: mild
s3 (ataxia), day 90 (onset of the disease-NS1) [2, 7]: mild
s1 (hindlimb retraction), day 110 (experiment endpoint) [2, 8]: moderate
s2 (tremor), day 110 (experiment endpoint) [2, 8]: moderate
s3 (ataxia), day 110 (experiment endpoint) [2, 8]: moderate
gene expression compared to transgenic control / wild type [3]: reversed the gene expression at a statistically significant rate, approximating it to the gene expression level in wild type animals
MNTC at 24 h [4]: 5 µg/mL
cells with Amyloid beta plaques ([5]; 24 hours, substance alone (ONaB or OAβ group)): 0%
inhibition at 5 µg/mL ([5]; Homo sapiens, SH-SY5Y, 24 h, read-out: plaques dissolved in Aβ+NaB group compared to the OAβ group): 92.4%

Nc1nc2ccc(OC(F)(F)F)cc2s1 [Riluzole]
extension of patient's life span (ALS patients): approximately a few months

Amyloid Beta: Amyloid Beta (Aβ), applied to differentiated SHSY5Y cells to create an Alzheimer's model [reference compound]
non-toxic concentration [6]: 4 µg/mL
